US12037345B2, “Heterobicyclic compounds for inhibiting the activity of SHP2” (TAIHO PHARMACEUTICAL CO., LTD., priority 2018, dated 2024)
pIC50: −log10 of the molar value. Counter-ions that a name gives are not always drawn.

What was measured:
[1] = target: SHP2 (Homo sapiens (Human), UniProt Q06124); experiment: SHP2 Biochemical Assay (DiFMUP conversion, pIRS1-activated); settings: Table 20
How it was run: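 Rates of DiFMU formation were followed 30 min at ex 360/em 450 nm, with 50 μM DiFMUP, 10 pM SHP2 and pIRS1 peptide ([…]) after 30 min compound pre-incubation at pH 7.0 Bis-Tris propane. Four-parameter logistic IC50s in singlicate; repeat runs averaged.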

[2] = test system: pERK (phospho-p44/42 MAPK Thr202/Tyr204) in HCC827 cells; experiment: Cellular pERK Inhibition Assay, Method B (PathScan phospho-p44/42 MAPK sandwich ELISA); type: cell-based; settings: Homo sapiens, Table 20, read-out: pERK (IC50, μM) Method B
Method: Cellular pERK Inhibition Assay
HCC827 cells (ATCC, Manassas, USA) were seeded into 96-well plates at a density of 1×10^5 cells/well in RPMI medium supplemented with 10% FBS and incubated 24h. Compounds were diluted first in DMSO and then into serum-free medium, before being added to cells in triplicate to give a final concentration of 0.1% DMSO. Plates were incubated at 37° C. for the indicated time in a humidified atmosphere of 5% CO2 in air.
Following compound treatment, medium was removed and cells were lysed by adding 50 μL of lysis buffer (Cell Signalling Technology, Beverly, USA) to each well. Plates were then incubated at room temperature for 25 minutes with shaking. pERK levels were measured in lysates using the PathScan(Registered Trademark) phospho-p44/42 MAPK (Thr202/Tyr204) sandwich ELISA (Cell Signalling Technology, Beverly, USA) as per kit instructions. Briefly, 50 μL of cell lysate was added to 50 μL of ELISA sample diluent in a 96-well ELISA plate and incubated overnight at 4° C. Following washing, 100 μL of detection antibody was added per well and the plates incubated for 1 hour at 37° C. Plates were washed again and incubated at 37° C. for 30 minutes with 100 μl of HRP-linked secondary antibody per well. After final washing, 100 μL per well of TMB substrate was added and plates incubated at 37° C. to develop colour. Colour development was stopped by the addition of 100 μL per well of stop solution. Plates were read at 450 nm on a SpectraMax Gemini reader (Molecular Devices, Uckfield, UK).
The average signal from blank wells (no cells added) was subtracted from the signals from each sample well. Levels of pERK were then expressed as “percent of control”, using DMSO treated samples as control. Dose response curves were generated using GraphPad Prism Version 6 (GraphPad Software, La Jolla, USA) and fitted using the four parameter logistic curve fit.

Sequence of SHP2 (Q06124 whole entry): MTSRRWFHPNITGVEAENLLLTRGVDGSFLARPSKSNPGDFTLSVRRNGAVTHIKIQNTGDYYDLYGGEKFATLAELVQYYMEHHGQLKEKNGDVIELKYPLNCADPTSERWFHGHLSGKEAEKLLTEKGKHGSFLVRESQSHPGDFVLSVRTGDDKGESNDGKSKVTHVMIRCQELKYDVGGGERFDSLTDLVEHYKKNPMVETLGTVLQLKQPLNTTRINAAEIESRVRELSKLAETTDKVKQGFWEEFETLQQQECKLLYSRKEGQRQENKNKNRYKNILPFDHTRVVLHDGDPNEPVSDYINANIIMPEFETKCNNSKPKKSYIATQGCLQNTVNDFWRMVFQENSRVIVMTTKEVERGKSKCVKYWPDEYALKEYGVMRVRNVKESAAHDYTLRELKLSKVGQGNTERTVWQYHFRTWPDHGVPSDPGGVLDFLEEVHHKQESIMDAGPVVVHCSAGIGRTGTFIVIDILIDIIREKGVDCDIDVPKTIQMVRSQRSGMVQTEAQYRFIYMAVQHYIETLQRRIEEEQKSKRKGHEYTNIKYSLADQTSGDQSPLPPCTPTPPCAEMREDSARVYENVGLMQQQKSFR

SMILES | pIC50 [1] | IC50 [2]
CCn1cc2ccc(-c3c[nH]c4nc(N5CCC6(CC5)COC[C@H]6N)n(C)c(=O)c34)c(Cl)c2n1 [Example 182, 2-[(4S)-4-amino-2-oxa-8-azaspiro[4.5]decan-8-yl]-5-(7-chloro-2-ethyl-2H-indazol-6-yl)-3-methyl-3H,4H,7H-pyrrolo[2,3-d]pyrimidin-4-one hydrochloride] | 7.44 | 2.2 µM
CCn1cc2ccc(-c3c[nH]c4nc(N5CCC6(CC5)COC[C@H]6N)n(C)c(=O)c34)c(F)c2n1 [Example 184, 2-[(4S)-4-amino-2-oxa-8-azaspiro[4.5]decan-8-yl]-5-(2-ethyl-7-fluoro-2H-indazol-6-yl)-3-methyl-3H,4H,7H-pyrrolo[2,3-d]pyrimidin-4-one hydrochloride] | 7.15 | 1.1 µM
Cn1c(N2CC[C@H](N)[C@H](F)C2)nc2[nH]cc(-c3ccc4ncsc4c3Cl)c2c1=O [Example 187, 2-[(3R,4S)-4-amino-3-fluoropiperidin-1-yl]-5-(7-chloro-1,3-benzothiazol-6-yl)-3-methyl-3H,4H,7H-pyrrolo[2,3-d]pyrimidin-4-one hydrochloride] | 7.29 | 0.8 µM
Cn1cc2c(Cl)c(-c3c[nH]c4nc(N5[C@H]6CCNC[C@@H]5CC6)n(C)c(=O)c34)ccc2n1 [Example 188, 5-(4-chloro-2-methyl-2H-indazol-5-yl)-2-[(1S,6R)-3,9-diazabicyclo[4.2.1]nonan-9-yl]-3-methyl-3H,4H,7H-pyrrolo[2,3-d]pyrimidin-4-one hydrochloride] | 7.39 | 0.56 µM
Cn1cc2c(Cl)c(-c3c[nH]c4nc(N5[C@@H]6CCNC[C@H]5CC6)n(C)c(=O)c34)ccc2n1 [Example 189, 5-(4-chloro-2-methyl-2H-indazol-5-yl)-2-[(1R,6S)-3,9-diazabicyclo[4.2.1]nonan-9-yl]-3-methyl-3H,4H,7H-pyrrolo[2,3-d]pyrimidin-4-one hydrochloride] | 7.72 | 0.23 µM
C[C@@H]1OCC2(CCN(c3nc4[nH]cc(-c5cc(F)c6nn(C)cc6c5Cl)c4c(=O)n3C)CC2)[C@@H]1N [Example 194, 2-[(3S,4S)-4-amino-3-methyl-2-oxa-8-azaspiro[4.5]decan-8-yl]-5-(4-chloro-7-fluoro-2-methyl-2H-indazol-5-yl)-3-methyl-3H,4H,7H-pyrrolo[2,3-d]pyrimidin-4-one hydrochloride] | 7.80 | 0.043 µM
Cn1cc2c(Cl)c(-c3c[nH]c4nc(N5[C@H]6CC[C@@H]5[C@](C)(N)C6)n(C)c(=O)c34)ccc2n1 [Example 195, 2-[(endo)-2-amino-2-methyl-7-azabicyclo[2.2.1]heptan-7-yl]-5-(4-chloro-2-methyl-2H-indazol-5-yl)-3-methyl-3H,4H,7H-pyrrolo[2,3-d]pyrimidin-4-one hydrochloride] | 7.80 | 0.045 µM
CCn1cc2c(Cl)c(-c3c[nH]c4nc(N5[C@H]6CC[C@@H]5[C@@H](F)[C@@H](N)C6)n(C)c(=O)c34)ccc2n1 [Example 197, 2-[(1R,2S,3S,5S)-3-amino-2-fluoro-8-azabicyclo[3.2.1]octan-8-yl]-5-(4-chloro-2-ethyl-2H-indazol-5-yl)-3-methyl-3H,4H,7H-pyrrolo[2,3-d]pyrimidin-4-one hydrochloride] | 7.92 | 0.032 µM
CN(C)c1ccc2ccc(-c3c[nH]c4nc(N5[C@H]6CC[C@@H]5[C@H](N)C6)n(C)c(=O)c34)c(Cl)c2n1 [Example 198, 2-[(1R,2R,4S)-2-amino-7-azabicyclo[2.2.1]heptan-7-yl]-5-[8-chloro-2-(dimethylamino)quinolin-7-yl]-3-methyl-3H,4H,7H-pyrrolo[2,3-d]pyrimidin-4-one hydrochloride] | 7.89 | 0.066 µM
CNc1ccc2ccc(-c3c[nH]c4nc(N5[C@H]6CC[C@@H]5[C@H](N)C6)n(C)c(=O)c34)c(Cl)c2n1 [Example 199, 2-[(1R,2R,4S)-2-amino-7-azabicyclo[2.2.1]heptan-7-yl]-5-[8-chloro-2-(methylamino)quinolin-7-yl]-3-methyl-3H,4H,7H-pyrrolo[2,3-d]pyrimidin-4-one hydrochloride] | 7.85 | 0.11 µM
